Earlier results, collected in patent publication US9566245B2, “Osmotic drug delivery system” (Supernus Pharmaceuticals, Inc., priority 2006, dated 2017).

Settings: treprostinil as the free acid

Absolute oral bioavailability: less than 10%
SMILES: CCCCC[C@H](O)CC[C@@H]1[C@H]2Cc3cccc(OCC(=O)O)c3C[C@H]2C[C@H]1O [treprostinil]
